Assays:
[1] = test system: peroxidized lipid in rat brain homogenate; assay: Lipoperoxidation inhibitory activity in brain homogenate (TBA method); assay type: biochemical, Wistar male rats; details: 30 minutes at 37° C., final conc. 0.3-100 μM, read-out: Anti-lipoperoxidation Activity IC50
Description: Brain homogenate was prepared using Wistar male rats in accordance with the following procedure. […] A polyethylene tube was inserted into the aorta through the left ventricle, and fixed. Brain perfusion was conducted using ice-cooled 50 mM phosphate buffered saline (PBS), pH 7.4, through the tube, and whole brain was extracted. After removal of the cerebellum, the cerebrum was weighed while wet and homogenated by a Teflon homogenizer under ice-cooling, after addition of nine-fold by weight of PBS. The resultant homogenate was centrifuged at 4° C. (2200 r.p.m., 10 minutes), and an aliquot of the supernatant (0.3 ml) was placed in a light-resistant test tube with ground stopper and used for the following test.
To the brain homogenate obtained above were added PBS (0.6 ml) and an ethanol solution (10 μl) containing a predetermined amount of a test compound. Thus, each of the ethanol solutions was prepared so that the final concentration of the compound was 0.3-100 μM. The mixture was allowed to warm for 30 minutes at 37° C. (external bath temperature). […] (2600 r.p.m., 10 minutes). The resultant supernatant was used in the following quantitative analysis.
The aqueous mixture was heated in a boiling-water bath for 60 minutes and cooled rapidly. Distilled water (1.0 ml) and a mixture of pyridine and butanol (1:15) (5.0 ml) were added to the cooled mixture, and the latter was shaken for 30 seconds and centrifuged (3000 r.p.m., 10 minutes). The supernatant was used as a test sample for quantitative analysis of peroxidized lipid as mentioned below.

mice = assay: Passive avoidance response test (memory-improving activity, cycloheximide-treated mice); assay type: in vivo; details: Mus musculus; oral, 15 mice per group, cycloheximide 120 mg/kg s.c., latent time; read-out: Memory-Improving Activity, Minimum Effective Dose
Description: Passive avoidance response test was conducted in mice (15 animals per group) using light-dark differential apparatus of step-down type. The apparatus consisted of a dark room made of black and rigid vinylidene chloride resin [30 cm (depth)×30 cm (width)×31 cm (height)] and a light room, as an adjacent room, made of transparent rigid vinylidene chloride resin. The floor of the light room was set 2 cm higher than the grid surface of the dark room (step down type), and there was a guillotine door between the rooms. The animals were placed in the apparatus and acclimatized before test, and latent time for moving from the light room to the dark room was determined.
The acclimatized animals subcutaneously received 120 mg/kg of cycloheximide (Sigma) dissolved in physiological saline. After 30 minutes of the administration, the animals were placed in the light room. Immediatly after the movement of the animals to the dark room, electric current was applied on the grid (0.5 mA, 3 seconds), which gave the animals "aquired behavior". After 24 hours of the establishment of the aquired behavior, a test compound suspended in 1% tragacanth was administered orally to the animals, which were then returned to the light room. Control animals received only 1% tragacanth. The latent time until an individual animal started to move to the dark room was determined.

Acute toxicity, oral = details: rat, in vivo, SD rats, seven-day observation
Description: Compounds of the invention suspended in 1% tragacanth was orally administered to SD rats (both male and female) and mortality (LD50) was determined after seven-day observation.

Row | SMILES | IC50 [1] | minimal effective dose (mice) | LD50 at 168 h (Acute toxicity, oral)
1 | CCCCCCCCCCOc1ccc(-c2c(C)[nH]c(=O)n2C)cc1 [compound 25] | 6.9 µM | 0.1 mg/kg | –
2 | CCCCCCCCCCCCCCc1ccc(-c2c(C)[nH]c(=O)n2C)cc1 [compound 14] | 43.8 µM | 30 mg/kg | –
3 | CCCCCCCCCCCCCCCCCCOc1ccc(-c2c(C)[nH]c(=O)n2C)cc1 [compound 27] | – | 0.1 mg/kg | –
4 | CCCc1ccc(-c2c(C)[nH]c(=O)n2CC)cc1 [compound 54] | 22.6 µM | – | –
5 | Cc1[nH]c(=O)n(C2CCCCC2)c1-c1ccc(OCc2ccccc2)cc1 [Compound No. 124, 5-(4'-Benzyloxyphenyl)-1-cyclohexyl-4-methyl-4-imidazolin-2-one] | 8.3 µM | 0.1 mg/kg | –
6 | CCCCOc1ccc(-c2c(C)[nH]c(=O)n2CC)cc1 [compound 58] | 14.5 µM | 0.3 mg/kg | –
7 | CCCCCCOc1ccc(-c2c(C)[nH]c(=O)n2C)cc1 [Compound No. 21] | 7.3 µM | – | –
8 | CCCCCCCCCCc1ccc(-c2c(C)[nH]c(=O)n2C2CCCCC2)cc1 [compound 102] | 27 µM | – | –
9 | CCn1c(-c2ccc(OC(C)C)cc2)c(C)[nH]c1=O [compound 60] | 39.1 µM | – | –
10 | CCCc1ccc(-c2c(C)[nH]c(=O)n2C2CCCCC2)cc1 [compound 106] | 13.9 µM | 30 mg/kg | –
11 | CCCCCCCOc1ccc(-c2c(C)[nH]c(=O)n2C)cc1 [compound 22] | 5.7 µM | – | –
12 | CCCCCCc1ccc(-c2c(C)[nH]c(=O)n2Cc2ccccc2)cc1 [compound 139] | 8.2 µM | – | –
13 | CCCCSc1ccc(-c2c(C)[nH]c(=O)n2CC)cc1 [compound 61] | 12.9 µM | – | –
14 | CCCCc1ccc(-c2c(C)[nH]c(=O)n2C)cc1 [Compound No. 2, 5-(4'-n-Butylphenyl)-1,4-dimethyl-4-imidazolin-2-one] | 10.7 µM | 0.1 mg/kg | > 1000 mg/kg
15 | CCCCSc1ccc(-c2c(C)[nH]c(=O)n2C)cc1 [compound 32] | 11.3 µM | 3 mg/kg | –
16 | CCCCOc1ccc(-c2c(C)[nH]c(=O)n2C2CCCCC2)cc1 [compound 111] | 13.9 µM | 0.1 mg/kg | –
17 | Cc1[nH]c(=O)n(C2CCCCC2)c1-c1ccc(OC(C)C)cc1 [compound 109] | 13 µM | 0.1 mg/kg | –
18 | Cc1[nH]c(=O)n(Cc2ccccc2)c1-c1ccc(C(C)(C)C)cc1 [compound 138] | 8.6 µM | – | –
19 | Cc1[nH]c(=O)n(C2CCCCC2)c1-c1ccc(OCCC(C)C)cc1 [compound 94, 1-Cyclohexyl-5-(4'-isoamyloxyphenyl)-4-methyl-4-imidazolin-2-one] | 7.2 µM | – | –
20 | CCCCCOc1ccc(-c2c(C)[nH]c(=O)n2C)cc1 [compound 19] | 4.5 µM | – | –

Row | SMILES | IC50 [1] | minimal effective dose (mice) | LD50 at 168 h (Acute toxicity, oral)
21 | CCCCCOc1ccc(-c2c(C)[nH]c(=O)n2C2CCCCC2)cc1 [compound 112] | 9.1 µM | – | –
22 | CCCCCCCCc1ccc(-c2c(C)[nH]c(=O)n2C2CCCCC2)cc1 [compound 101] | 10.3 µM | – | –
23 | CCCCOc1ccc(-c2c(C)[nH]c(=O)n2Cc2ccccc2)cc1 [compound 142] | 12.8 µM | 0.3 mg/kg | –
24 | Cc1[nH]c(=O)n(C)c1-c1ccc(OCCC(C)C)cc1 [Compound No. 20] | 6.6 µM | – | –
25 | Cc1[nH]c(=O)n(C)c1-c1ccc(OC(C)C)cc1 [compound 17] | 20.4 µM | – | –
26 | Cc1[nH]c(=O)n(C2CCCCC2)c1-c1ccccc1OC(C)C [compound 108] | 21.5 µM | – | –
27 | CCCCCCCCc1ccc(-c2c(C)[nH]c(=O)n2C)cc1 [compound 11] | 19.4 µM | 30 mg/kg | –
28 | Cc1[nH]c(=O)n(C2CCCCC2)c1-c1cccc(OC(C)C)c1 [compound 107] | 10.4 µM | – | –
29 | CCCCCCCCCCCCc1ccc(-c2c(C)[nH]c(=O)n2C)cc1 [Compound No. 13] | 13 µM | 3 mg/kg | –
30 | CCCCCCCCCCOc1ccc(-c2c(C)[nH]c(=O)n2C2CCCCC2)cc1 [Compound No. 122, 1-cyclohexyl-5-(4'-decyloxyphenyl)-4-methyl-4-imidazolin-2-one] | 10.5 µM | 0.1 mg/kg | –
31 | CSc1ccc(-c2c(C)[nH]c(=O)n2C)cc1 [compound 31] | 39.4 µM | – | –
32 | CCCCc1ccc(-c2c(C)[nH]c(=O)n2C(C)C)cc1 [compound 78] | 10.7 µM | 0.3 mg/kg | –
33 | Cc1[nH]c(=O)n(C)c1-c1ccc(OCc2ccccc2)cc1 [compound 29] | 6.7 µM | – | –
34 | CCCCCCCCCCCCOc1ccc(-c2c(C)[nH]c(=O)n2C)cc1 [compound 26] | 9.7 µM | 0.1 mg/kg | –
35 | COC1=C(OC)C(=O)C(CCCCCCCCCCO)=C(C)C1=O [Idebenone, reference compound] | 17.2 µM | – | –
36 | CCCCCCCCCCc1ccc(-c2c(C)[nH]c(=O)n2C)cc1 [Compound No. 12] | 7.9 µM | 0.3 mg/kg | –
37 | CCCCc1ccc(-c2c(CC)[nH]c(=O)n2C)cc1 [compound 3] | 13.9 µM | – | –
38 | Cc1[nH]c(=O)n(C2CCCCC2)c1-c1ccc(Oc2ccccc2)cc1 [Compound No. 123, 1-Cyclohexyl-4-methyl-5-(4'-phenoxyphenyl)-4-imidazolin-2-one] | 7.9 µM | 0.1 mg/kg | –
39 | CCCc1ccc(-c2c(C)[nH]c(=O)n2C)cc1 [Compound No. 7] | 21.5 µM | – | –
40 | Cc1[nH]c(=O)n(C)c1-c1ccc(C2CCCCC2)cc1 [compound 8] | 10 µM | 0.1 mg/kg | > 1000 mg/kg

Row | SMILES | IC50 [1] | minimal effective dose (mice) | LD50 at 168 h (Acute toxicity, oral)
41 | CCCCOc1ccc(-c2c(C)[nH]c(=O)n2C)cc1 [compound 18] | 5.1 µM | 0.3 mg/kg | –
42 | Cc1[nH]c(=O)n(Cc2ccccc2)c1-c1ccc(-c2ccccc2)cc1 [compound 141] | 7.9 µM | 0.1 mg/kg | –
43 | CCCCCCCc1ccc(-c2c(C)[nH]c(=O)n2C)cc1 [compound 10] | 8.4 µM | 30 mg/kg | –
44 | Cc1[nH]c(=O)n(Cc2ccccc2)c1-c1ccc(C2CCCCC2)cc1 [compound 140] | 35.3 µM | – | –
45 | Cc1[nH]c(=O)n(C2CCCCC2)c1-c1ccc(-c2ccccc2)cc1 [Compound No. 93, 1-Cyclohexyl-5-(4-biphenyl)-4-methyl-4-imidazolin-2-one] | 10.9 µM | 0.1 mg/kg | –
46 | Cc1[nH]c(=O)n(C)c1-c1ccc(OCCCc2ccccc2)cc1 [compound 30] | 5.9 µM | 30 mg/kg | –
47 | Cc1[nH]c(=O)n(C)c1-c1ccc(Oc2ccccc2)cc1 [compound 28] | 8.1 µM | – | –
48 | CCCCc1ccc(-c2c(CC)[nH]c(=O)n2CC)cc1 [compound 56] | 13.9 µM | – | –
49 | Cc1[nH]c(=O)n(C(C)C)c1-c1ccc(C2CCCCC2)cc1 [Compound No. 77, 5-(4'-Cyclohexylphenyl)-1-isopropyl-4-methyl-4-imidazolin-2-one] | 8.3 µM | 0.1 mg/kg | –
50 | CCCCn1c(-c2ccccc2)c(C)[nH]c1=O [Compound B, reference compound] | > 100 µM | – | –
51 | CCCCCCCCOc1ccc(-c2c(C)[nH]c(=O)n2C)cc1 [compound 23] | 4 µM | 30 mg/kg | –
52 | CCCCCc1ccc(-c2c(C)[nH]c(=O)n2C)cc1 [compound 6] | 5.9 µM | – | –
53 | Cc1[nH]c(=O)n(C)c1-c1ccc(C(C)(C)C)cc1 [Compound No. 9] | 8.4 µM | – | –
54 | CCCCCCc1ccc(-c2c(C)[nH]c(=O)n2C)cc1 [Compound No. 1, 1,4-Dimethyl-5-(4'-n-hexylphenyl)-4-imidazolin-2-one] | 9 µM | 0.3 mg/kg | –
55 | CCCCOc1ccccc1-c1c(C)[nH]c(=O)n1C(C)C [compound 80] | 25.5 µM | – | –
56 | CCCCCCCCCOc1ccc(-c2c(C)[nH]c(=O)n2C)cc1 [compound 24] | 4.8 µM | – | –
57 | Cc1[nH]c(=O)n(C)c1-c1ccc(CC(C)C)cc1 [compound 5] | 7.8 µM | 30 mg/kg | –
58 | CCCCc1ccc(-c2c(C)[nH]c(=O)n2CC)cc1 [compound 55] | 24.5 µM | – | –
59 | COc1ccc(-c2c(C)[nH]c(=O)n2C)cc1 [Compound A, reference compound] | 147 µM | – | –
60 | CCCCOc1cccc(-c2c(C)[nH]c(=O)n2C2CCCCC2)c1 [compound 110] | 9 µM | – | –
